Legend:
Assay type in all cases: cell-based
[1] = tested on: injured SH-SY5Y cells; assay: Protective effect against tert-butyl hydroperoxide-induced SH-SY5Y neurotoxicity cells (MTT assay); settings: Homo sapiens;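 on Proliferation Rate (%): 0% equals CoCl2-injured cells and 100% equals NGF-treated cells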
Method: The protective effects of baicalein derivatives in vitro was evaluated against tert-butyl, hydroperoxide-induced, SH-SY5Y neurotoxicity cells using an MTT assay. In addition, their toxicity evaluation was tested on normal H9C2 cells. The resulting proliferation rates (%) at different concentrations, as well as their 50% effective concentrations (EC50) for protecting damaged SH-SY5Y cells of the baicalein amino acid derivatives, are summarized in Table 2.
(§1) The SH-SY5Y ([…]) and H9C2 ([…]) cell lines were obtained from the Chinese Academy of Medical Sciences and Peking Union Medical College. All of the cell lines were grown in dulbecco’s modified eagle medium (DMEM) with 10% (v/v) fetal bovine serum (FBS) and 1% (v/v) penicillin/streptomycin (Thermo Technologies, New York, NY, USA), under a humidified atmosphere containing 5% CO2 at 37 °C. The baicalein derivatives were dissolved in DMSO (Sigma, St. Louis, MO, USA) and added at various concentrations to the cell culture.
(§2) The protective effect of these compounds was evaluated on SH-SY5Y and H9C2 cell lines via the MTT method. The cells growing in the logarithmic phase were cultured in 96-well plates at a density 3 × 10^3 cells/well and incubated for 24 h. Then each well was treated with the required concentrations (50 µM concentrations, 25 µM concentrations, 12.5µM concentrations, 6.25 µM concentrations, and 3.125 µM concentrations) of baicalein derivatives, and incubated 36 h at 37 °C with 5% CO2. After that, the cells were induced by H2O2 (final concentration, […]) for 12 h. Control-differentiated cells were injected with new growth media at equal amounts. Before […] MTT solution (5 mg/mL) was added to each well, the cell culture fluid was discarded, and […] fresh cell culture fluid was added. The plate was incubated for a further 4 h at 37 °C. The cell supernatant medium was removed carefully, without disturbing the attached cells, and formazan crystals were solubilized by adding 150 μL DMSO into each well. The absorbance was measured at 490 nm with a plate reader (BIORAD 550 spectrophotometer, Bio-rad Life Science Development Ltd., Beijing, China). H2O2 was dissolved in DMEM medium. Wells without drugs were used as blanks. The EC50 values were defined as the concentrations that causes the maximum effect of 50%; IC50 values were defined as the concentration of compound which gives 50% growth inhibition, and were calculated using the GraphPad Prism 5. The proliferation rates of damaged SH-SY5Y cells were calculated in the following formula (1): [OD490 (compound) − OD490 (CoCl2)]/[OD490 (NGF) − OD490 (CoCl2)] × 100%(1) The EC50 values were using the equation −pEC50 = log Cmax − log 2 × (ΣP − 0.75 + 0.25Pmax + 0.25Pmin)(2) where Cmax is the maximum concentration, ΣP is the sum of proliferation rates, Pmax is the maximum value of the proliferation rate, and Pmin is the minimum value of the proliferation rate. Cell viability was expressed as a percentage of the control.

[2] = tested on: H9C2 cells; assay: Toxicity on normal H9C2 cells (MTT assay)
Method: To study cytotoxicity on normal cells, the cytotoxicity of compounds against normal H9C2 cells were tested.
as §1, §2
The inhibition rate was calculated in the following equation: % inhibition = 1 − (Sample group OD/Control group OD) × 100%(3)

[3] = tested on: injured SH-SY5Y cells; assay: Morphological detection of apoptosis using Giemsa staining; settings: 6.25, 12.5, 25 μM, 72 h
Method: SH-SY5Y cells in the logarithmic growth phase were seeded in 12-well plates (1.2 × 10^4 cells/well). After incubation for 24 h at 37 °C with 5% CO2, various concentrations ([…] concentrations) of compound 8 were added to the cultures, and the plate was incubated for a further 72 h. Then, we discarded the cell culture fluid, washed twice with phosphate-buffered saline (PBS), and fixed the cells with cold methanol. The SH-SY5Y cells were stained with 6% Giemsa solution for 5 min, washed with water, and dried. The cell morphological changes were observed under an inverted microscope.
Figure 2 Morphological detection of apoptosis using Giemsa staining (200×) on injured SH-SY5Y cells treated with compound 8: (a) control group, (b) injury group, (c) 6.25 μM, (d) 12.5 μM, and (e) 25 μM.

[4] = tested on: injured SH-SY5Y cells; assay: Morphological detection of apoptosis using DAPI staining; settings: 6.25, 12.5, and 25 μM, 72 h
Method: To further study the mechanism of growth inhibition of compound 8 on injured SH-SY5Y cells, DAPI staining was performed. Injured SH-SY5Y cells were treated with compound 8 at […] concentrations for 72 h. […] When the concentration of the drug increased, the shape of the cells became regular.
SH-SY5Y cells in logarithmic growth phase were seeded in 12-well plates (2.4 × 10^4 cells/well). After incubation for 24 h at 37 °C in a humidified atmosphere with 5% CO2, various concentrations of compound 8 was added to the cultures, and the plate was incubated for further 72 h. After discarding the cell culture medium, washing twice with PBS, and fixing with 4% paraformaldehyde for 10 min, 4′,6-diamidino-2-phenylindole (DAPI, 1 mg/mL, Molecular Probes/Invitrogen Life Technologies, Carlsbad, CA, USA), staining was performed for 5 min in the dark, and nuclear fragments were observed under fluorescence microscope.
Figure 3 Morphological detection of apoptosis using 4′,6-diamidino-2-phenylindole (DAPI) staining (200×) on injured SH-SY5Y cells treated with compound 8, (a) control group, (b) injury group, (c) 6.25 μM, (d) 12.5 μM, and (e) 25 μM.

[5] = tested on: H9C2 cells; assay: Toxicity on normal H9C2 cells (MTT assay); settings: read-out: Survival Rate (%)

O=C(NC(Cc1ccccc1)C(=O)Oc1c(O)cc2oc(-c3ccccc3)cc(=O)c2c1O)OCc1ccccc1 (stereo not drawn) [Compound 8, 5,7-dihydroxy-4-oxo-2-phenyl-4H-chromen-6-yl 2-{[(benzyloxy)carbonyl]amino}-3-phenyl-proppanpate]
viability at 3.125 µM ([1]; 3.125 µM, injured SH-SY5Y cells, read-out: Proliferation Rate (%)): 52.5% | viability at 6.25 µM ([1]; 6.25 µM, injured SH-SY5Y cells, read-out: Proliferation Rate (%)): 75.1% | viability at 12.5 µM ([1]; 12.5 µM, injured SH-SY5Y cells, read-out: Proliferation Rate (%)): 83.1% | viability at 25 µM ([1]; 25 µM, injured SH-SY5Y cells, read-out: Proliferation Rate (%)): 87.3% | viability at 50 µM ([1]; 50 µM, injured SH-SY5Y cells, read-out: Proliferation Rate (%)): 94% | EC50 ([1]; tert-butyl hydroperoxide-induced SH-SY5Y neurotoxicity, read-out: EC50 for protecting injured SH-SY5Y cells): 4.31 µM | viability at 6.25 µM ([2]; 6.25 µM, H9C2 cells, MTT, read-out: Survival Rate (%)): 195% | viability at 12.5 µM ([2]; 12.5 µM, H9C2 cells, MTT, read-out: Survival Rate (%)): 182% | viability at 25 µM ([2]; 25 µM, H9C2 cells, MTT, read-out: Survival Rate (%)): 169% | viability at 50 µM ([2]; 50 µM, H9C2 cells, MTT, read-out: Survival Rate (%)): 168% | Toxicity against H9C2 cells (in words) ([2]; normal H9C2 cells): lower toxicity on the H9C2 cell line | IC50 ([2]; normal H9C2 cells, MTT): > 100 µM | Nuclear and cytoplasmic morphological changes (Giemsa staining) [3]: alleviating morphological manifestations of cell damage | Nuclear morphology / apoptosis (DAPI staining) [4]: protects injured SH-SY5Y cells from apoptosis | viability at 100 µM [5]: 168%

Reference: publication PMC6832219, “Synthesis of Novel Baicalein Amino Acid Derivatives and Biological Evaluation as Neuroprotective Agents” (Molecules, 2019)
